Legend:
[1] = molecular target: T1, CYP2C8 (Homo sapiens, UniProt P10632); experiment: CYP2C8 inhibition in pooled human liver microsomes (paclitaxel 6α-hydroxylation); assay type: in vitro ADME; settings: Friedelin 100 μM, pooled HLMs
T1 construct: from tissue; host or cells: human liver microsomes
T1 sequence (P10632 1-490): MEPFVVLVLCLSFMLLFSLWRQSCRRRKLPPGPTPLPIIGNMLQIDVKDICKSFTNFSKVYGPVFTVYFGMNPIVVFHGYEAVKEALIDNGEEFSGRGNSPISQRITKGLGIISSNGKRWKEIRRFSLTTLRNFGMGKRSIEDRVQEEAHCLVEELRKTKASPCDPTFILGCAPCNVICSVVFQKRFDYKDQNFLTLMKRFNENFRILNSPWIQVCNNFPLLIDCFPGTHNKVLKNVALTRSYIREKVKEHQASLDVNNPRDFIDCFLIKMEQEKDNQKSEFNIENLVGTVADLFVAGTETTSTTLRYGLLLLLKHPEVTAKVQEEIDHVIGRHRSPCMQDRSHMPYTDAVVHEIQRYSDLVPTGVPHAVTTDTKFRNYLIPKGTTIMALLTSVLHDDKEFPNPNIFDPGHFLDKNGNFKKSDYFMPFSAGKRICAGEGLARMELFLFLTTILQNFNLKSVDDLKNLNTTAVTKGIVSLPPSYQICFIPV
Procedure: (§1) All incubations were performed in triplicate, and the mean values were utilized. The typical incubation systems contained 100 mM potassium phosphate buffer (pH 7.4), NADPH generating system (1 mM NADP^+, 10 mM glucose-6-phosphate, 1 U/mL of glucose-6-phosphate dehydrogenase, and 4 mM MgCl2), the appropriate concentration of HLMs, a corresponding probe substrate and Friedelin (or positive inhibitor for different probe reactions) in a final volume of 200 μL.
(§2) The concentration of Friedelin was 100 μM, and the positive inhibitor concentrations were as follows: 1 μM ketoconazole for CYP3A4, 10 μM furafylline for CYP1A2, 10 μM tranylcypromine for CYP2A6, 50 μM clomethiazole for CYP2E1, 10 μM quinidine for CYP2D6, 10 μM sulfaphenazole for CYP2C9, 50 μM tranylcypromine for CYP2C19, 5 μM montelukast for CYP2C8. Probe substrates, positive inhibitors (except for dextromethorphan and quinidine which were dissolved in water) and Friedelin were dissolved in methanol, with a final concentration of 1% (v/v) and 1% neat methanol was added to the incubations without inhibitor. […] The instrument used in this study were Agilent 1260 series instrument with DAD and FLD detector, and the quantitative assay for the corresponding metabolites was performed as previously reported (Lang et al. [2016]; Zhang et al. [2017]). […]

[2] = molecular target: T2, CYP2C19 (Homo sapiens, UniProt P33261); experiment: CYP2C19 inhibition in pooled human liver microsomes (S-mephenytoin 4-hydroxylation); assay type: in vitro ADME; settings: Friedelin 100 μM, pooled HLMs
T2 construct: from tissue; host or cells: human liver microsomes
Procedure: as §1, §2

[3] = molecular target: T3, CYP3A4 (Homo sapiens, UniProt P08684); experiment: CYP3A4 inhibition in pooled human liver microsomes (testosterone 6β-hydroxylation); assay type: in vitro ADME; settings: pooled HLMs
T3 construct: effects of Friedelin on CYP3A4 catalyzed reactions (testosterone 6β-hydroxylation) in pooled HLM; from tissue; host or cells: pooled human liver microsomes
Procedure: as §1
(§3) The concentration of Friedelin was 100 μM, and the positive inhibitor concentrations were as follows: 1 μM ketoconazole for CYP3A4, 10 μM furafylline for CYP1A2, 10 μM tranylcypromine for CYP2A6, 50 μM clomethiazole for CYP2E1, 10 μM quinidine for CYP2D6, 10 μM sulfaphenazole for CYP2C9, 50 μM tranylcypromine for CYP2C19, 5 μM montelukast for CYP2C8. Probe substrates, positive inhibitors (except for dextromethorphan and quinidine which were dissolved in water) and Friedelin were dissolved in methanol, with a final concentration of 1% (v/v) and 1% neat methanol was added to the incubations without inhibitor. There was a 3 min preincubation period (at 37 °C) before the reaction was initiated by adding an NADPH-generating system. The reaction was terminated by adding a 100 μL acetonitrile (10% trichloroacetic acid for CYP2A6) internal standard mix, and the solution was placed on ice. The mixture was centrifuged at 12,000 rpm for 10 min, and an aliquot (50 μL) of the supernatant was transferred for HPLC analysis. The instrument used in this study were Agilent 1260 series instrument with DAD and FLD detector, and the quantitative assay for the corresponding metabolites was performed as previously reported (Lang et al. [2016]; Zhang et al. [2017]).
(§4) Friedelin (100 μM) was used to initially screen for its direct inhibitory effects toward different human CYP isoforms. […] Ki values were obtained by incubating various concentrations of different probe substrates (20–100 μM testosterone, 25–200 μM chlorzoxazone) in the presence of 0–50 μM Friedelin.
(§5) The enzyme kinetic parameters for the probe reaction were estimated from the best fit line using least-squares linear regression of the inverse substrate concentration versus the inverse velocity (Lineweaver–Burk plots), and the mean values were used to calculate Vmax and Km. Inhibition data from the experiments that were conducted using multiple compound concentrations were represented by Dixon plots, and inhibition constant (Ki) values were calculated using nonlinear regression according to the following equation: v=(VmaxS)/(Km(1+I/Ki)+S), where I is the concentration of the compound, Ki is the inhibition constant, S is the concentration of the substrate, and Km is the substrate concentration at half the maximum velocity (Vmax) of the reaction. […]

[4] = molecular target: T3, CYP3A4; experiment: Time-dependent inhibition study of CYP3A4 in human liver microsomes; assay type: in vitro ADME
Procedure: (§6) To determine whether Friedelin could inhibit the activity of CYP3A4 and 2E1 in a time-dependent manner, Friedelin (20 μM) was preincubated with HLMs (1 mg/mL) in the presence of an NADPH-generating system for 30 min at 37 °C. After incubation, an aliquot (20 μL) was transferred to another incubation tube (final volume 200 μL) containing an NADPH-generating system and probe substrates whose final concentrations were approximate to Km. Then, further incubations were performed to measure the residual activity. After being incubated for different time (0–30 min), the reactions were terminated by adding a 100 μL acetonitrile internal standard mix and then placed on ice; the corresponding metabolites were determined by HPLC. To determine the Ki and kinact values for the inactivation of CYP3A4, the incubations were conducted using higher probe substrate concentrations (approximately 4-fold Km values) and various concentrations of Friedelin (0–50 μM) after different preincubation times (0–30 min), with a two-step incubation scheme, as described above.

[5] = molecular target: T4, CYP2A6 (Homo sapiens, UniProt P11509); experiment: CYP2A6 inhibition in pooled human liver microsomes (coumarin 7-hydroxylation); assay type: in vitro ADME; settings: Friedelin 100 μM, pooled HLMs
T4 construct: from tissue; host or cells: human liver microsomes
T4 sequence (P11509 1-494): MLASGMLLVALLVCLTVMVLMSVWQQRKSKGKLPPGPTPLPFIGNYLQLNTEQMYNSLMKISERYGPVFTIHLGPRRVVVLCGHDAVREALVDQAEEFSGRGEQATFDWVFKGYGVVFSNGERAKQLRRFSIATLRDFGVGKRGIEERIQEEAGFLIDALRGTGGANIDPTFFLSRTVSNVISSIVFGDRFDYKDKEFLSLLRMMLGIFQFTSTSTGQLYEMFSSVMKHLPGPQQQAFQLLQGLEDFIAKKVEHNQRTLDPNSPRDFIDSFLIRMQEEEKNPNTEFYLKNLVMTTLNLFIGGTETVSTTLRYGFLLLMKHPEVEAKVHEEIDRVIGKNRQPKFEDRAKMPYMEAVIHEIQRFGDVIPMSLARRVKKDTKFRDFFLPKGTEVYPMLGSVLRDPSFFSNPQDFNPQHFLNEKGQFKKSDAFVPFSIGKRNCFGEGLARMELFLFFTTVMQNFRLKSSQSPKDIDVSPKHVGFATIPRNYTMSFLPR
Procedure: as §1, §2

[6] = molecular target: T5, CYP1A2 (Homo sapiens, UniProt P05177); experiment: CYP1A2 inhibition in pooled human liver microsomes (phenacetin O-demethylation); assay type: in vitro ADME; settings: Friedelin 100 μM, pooled HLMs
T5 construct: from tissue; host or cells: human liver microsomes
T5 sequence (P05177 1-516): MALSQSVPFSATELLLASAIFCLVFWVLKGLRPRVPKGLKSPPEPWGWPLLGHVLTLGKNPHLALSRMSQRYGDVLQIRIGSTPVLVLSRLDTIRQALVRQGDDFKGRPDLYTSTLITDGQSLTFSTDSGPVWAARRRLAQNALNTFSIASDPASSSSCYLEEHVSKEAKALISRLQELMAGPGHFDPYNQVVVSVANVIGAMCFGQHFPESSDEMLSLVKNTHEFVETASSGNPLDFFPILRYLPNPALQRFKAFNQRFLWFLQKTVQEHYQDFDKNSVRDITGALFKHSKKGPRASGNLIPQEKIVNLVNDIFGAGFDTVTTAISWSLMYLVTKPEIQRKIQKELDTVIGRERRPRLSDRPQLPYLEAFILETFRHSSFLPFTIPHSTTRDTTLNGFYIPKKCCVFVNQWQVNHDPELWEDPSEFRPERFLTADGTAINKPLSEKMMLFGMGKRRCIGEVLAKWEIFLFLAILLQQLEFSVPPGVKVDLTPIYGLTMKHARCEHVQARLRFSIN
Procedure: as §1, §2

[7] = molecular target: T6, CYP2E1 (Homo sapiens, UniProt P05181); experiment: Time-dependent inhibition study of CYP2E1 in human liver microsomes; assay type: in vitro ADME; settings: Friedelin 20 μM, 30 min preincubation with HLM and NADPH
T6 construct: effects of Friedelin on CYP2E1 catalyzed reactions (chlorzoxazone 6-hydroxylation) in pooled HLM; from tissue; host or cells: pooled human liver microsomes
Procedure: as §6, with “HPLC.” for “HPLC. To determine the Ki and kinact values for the inactivation of CYP3A4, the incubations were conducted using higher probe substrate concentrations (approximately 4-fold Km values) and various concentrations of Friedelin (0–50 μM) after different preincubation times (0–30 min), with a two-step incubation scheme, as described above.”

[8] = molecular target: T6, CYP2E1; experiment: CYP2E1 inhibition in pooled human liver microsomes (chlorzoxazone 6-hydroxylation); assay type: in vitro ADME; settings: pooled HLMs
Procedure: as §1, §3, §4, §5

[9] = test system: P-glycoprotein (P-gp); parameters: method as in Lee et al. [2017]; settings: ref Lee et al. [2017]; cited from earlier work
[10] = molecular target: T7, CYP2C9 (Homo sapiens, UniProt P11712); experiment: CYP2C9 inhibition in pooled human liver microsomes (diclofenac 4'-hydroxylation); assay type: in vitro ADME; settings: Friedelin 100 μM, pooled HLMs
T7 construct: from tissue; host or cells: human liver microsomes
Procedure: as §1, §2

[11] = molecular target: T8, CYP2D6 (Homo sapiens, UniProt P10635); experiment: CYP2D6 inhibition in pooled human liver microsomes (dextromethorphan O-demethylation); assay type: in vitro ADME; settings: Friedelin 100 μM, pooled HLMs
T8 construct: from tissue; host or cells: human liver microsomes
Procedure: as §1, §2

T3 sequence (P08684 whole entry): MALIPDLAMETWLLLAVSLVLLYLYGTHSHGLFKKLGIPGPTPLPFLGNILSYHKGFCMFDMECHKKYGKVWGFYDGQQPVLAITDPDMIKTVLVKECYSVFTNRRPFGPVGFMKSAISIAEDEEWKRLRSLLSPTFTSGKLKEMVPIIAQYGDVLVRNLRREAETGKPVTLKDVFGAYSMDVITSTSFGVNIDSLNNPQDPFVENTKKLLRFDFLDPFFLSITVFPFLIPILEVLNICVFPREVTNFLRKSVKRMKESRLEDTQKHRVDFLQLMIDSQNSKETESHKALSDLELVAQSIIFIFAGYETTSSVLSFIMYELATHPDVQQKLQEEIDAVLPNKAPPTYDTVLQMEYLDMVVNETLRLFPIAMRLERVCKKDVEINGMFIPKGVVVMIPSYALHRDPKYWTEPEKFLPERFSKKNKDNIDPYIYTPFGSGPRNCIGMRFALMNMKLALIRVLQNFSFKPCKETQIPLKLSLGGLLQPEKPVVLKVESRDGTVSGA
T6 sequence (P05181 whole entry): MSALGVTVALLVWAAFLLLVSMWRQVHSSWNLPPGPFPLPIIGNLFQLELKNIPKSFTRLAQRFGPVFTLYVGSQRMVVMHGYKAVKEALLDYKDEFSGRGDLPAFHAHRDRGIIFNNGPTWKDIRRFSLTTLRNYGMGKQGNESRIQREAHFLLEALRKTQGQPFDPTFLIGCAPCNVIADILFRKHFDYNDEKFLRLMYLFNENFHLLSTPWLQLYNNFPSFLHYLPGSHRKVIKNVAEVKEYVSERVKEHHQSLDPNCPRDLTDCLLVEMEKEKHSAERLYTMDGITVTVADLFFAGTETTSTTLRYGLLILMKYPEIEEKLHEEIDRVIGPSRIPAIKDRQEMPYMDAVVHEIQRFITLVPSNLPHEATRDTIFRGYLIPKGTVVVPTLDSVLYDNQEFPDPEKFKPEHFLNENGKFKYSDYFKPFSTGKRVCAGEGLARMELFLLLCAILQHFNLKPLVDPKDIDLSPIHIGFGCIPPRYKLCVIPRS
T7 sequence (P11712 whole entry): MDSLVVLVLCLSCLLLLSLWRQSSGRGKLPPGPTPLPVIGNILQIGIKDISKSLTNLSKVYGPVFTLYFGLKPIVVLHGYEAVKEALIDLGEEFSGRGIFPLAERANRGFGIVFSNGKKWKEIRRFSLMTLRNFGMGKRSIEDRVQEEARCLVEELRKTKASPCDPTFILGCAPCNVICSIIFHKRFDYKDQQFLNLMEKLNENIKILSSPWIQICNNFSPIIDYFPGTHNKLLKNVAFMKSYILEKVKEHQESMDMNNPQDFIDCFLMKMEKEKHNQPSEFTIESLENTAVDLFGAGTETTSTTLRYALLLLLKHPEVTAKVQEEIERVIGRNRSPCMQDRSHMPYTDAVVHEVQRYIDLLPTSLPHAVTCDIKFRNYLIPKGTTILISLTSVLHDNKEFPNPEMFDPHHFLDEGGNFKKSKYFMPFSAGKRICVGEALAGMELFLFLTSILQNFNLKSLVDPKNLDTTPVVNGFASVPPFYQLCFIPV
T2 sequence (P33261 whole entry): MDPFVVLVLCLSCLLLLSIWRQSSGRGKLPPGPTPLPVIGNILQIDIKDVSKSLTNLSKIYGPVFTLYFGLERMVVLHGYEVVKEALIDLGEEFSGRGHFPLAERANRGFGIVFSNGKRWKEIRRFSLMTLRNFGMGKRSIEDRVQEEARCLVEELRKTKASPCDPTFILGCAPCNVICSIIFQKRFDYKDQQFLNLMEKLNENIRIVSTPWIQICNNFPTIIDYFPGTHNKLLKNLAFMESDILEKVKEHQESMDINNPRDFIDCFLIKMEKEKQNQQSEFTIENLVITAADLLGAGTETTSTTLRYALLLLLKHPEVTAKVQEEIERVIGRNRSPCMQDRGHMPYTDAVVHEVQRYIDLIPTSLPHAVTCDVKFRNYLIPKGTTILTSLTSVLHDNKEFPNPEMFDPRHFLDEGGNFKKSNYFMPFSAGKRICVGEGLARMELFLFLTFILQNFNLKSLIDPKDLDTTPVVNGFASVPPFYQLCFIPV
T8 sequence (P10635 whole entry): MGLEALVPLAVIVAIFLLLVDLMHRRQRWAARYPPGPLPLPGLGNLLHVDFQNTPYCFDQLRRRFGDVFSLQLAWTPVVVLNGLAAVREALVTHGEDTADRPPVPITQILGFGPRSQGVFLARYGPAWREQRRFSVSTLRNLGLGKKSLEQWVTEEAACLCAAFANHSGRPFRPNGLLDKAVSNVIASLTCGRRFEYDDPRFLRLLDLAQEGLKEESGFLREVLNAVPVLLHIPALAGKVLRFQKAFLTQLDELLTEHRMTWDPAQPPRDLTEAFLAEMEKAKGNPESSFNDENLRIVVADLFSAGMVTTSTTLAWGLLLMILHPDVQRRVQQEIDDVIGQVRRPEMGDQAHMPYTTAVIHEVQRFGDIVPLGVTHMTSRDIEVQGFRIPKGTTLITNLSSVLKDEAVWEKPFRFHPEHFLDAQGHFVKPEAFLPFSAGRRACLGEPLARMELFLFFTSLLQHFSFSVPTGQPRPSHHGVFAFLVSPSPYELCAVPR

- Inhibition of CYP2C8 activity [1]: could not inhibit
- Inhibition of CYP2C19 activity [2]: could not inhibit
- Mode of inhibition of CYP3A4 ([3]; Lineweaver–Burk plots): noncompetitive
- activity at 100 μM ([3]; human, pooled human liver microsomes, pH 7.4, probe testosterone (6β-hydroxylation), Friedelin 100 μM, testosterone 6β-hydroxylation, read-out: CYP3A4 activity, % of control activity): 7.5%
- Ki ([3]; secondary Lineweaver–Burk plot, testosterone 20–100 μM): 6.16 µM
- IC50 ([3]; testosterone 6β-hydroxylation): 10.8 µM
- Time-dependent inhibition of CYP3A4 activity ([4]; Friedelin 20 μM, 30 min preincubation with HLM and NADPH): decreased with the incubation time
- kinact/KI ([4]; human, human liver microsomes, HLM, Friedelin 0–50 μM, preincubation 0–30 min with NADPH, read-out: Kinact/Ki for CYP3A4 inactivation (converted)): 80.7 M⁻¹ s⁻¹
- CYP3A4 inactivated each minute (Kinact) ([4]; saturating concentration of Friedelin incubated with HLM): approximately 5.9%
- Inhibition of CYP2A6 activity [5]: could not inhibit
- Inhibition of CYP1A2 activity [6]: could not inhibit
- Time-dependent inhibition of CYP2E1 activity [7]: not affected
- Mode of inhibition of CYP2E1 ([8]; Lineweaver–Burk plots): competitive
- activity at 100 μM ([8]; human, pooled human liver microsomes, pH 7.4, probe chlorzoxazone (6-hydroxylation), Friedelin 100 μM, chlorzoxazone 6-hydroxylation, read-out: CYP2E1 activity, % of control activity): 18.9%
- IC50 ([8]; chlorzoxazone 6-hydroxylation): 22.5 µM
- Ki ([8]; secondary Lineweaver–Burk plot, chlorzoxazone 25–200 μM): 18 µM
- Inhibition of CYP2C9 activity [10]: could not inhibit
- Inhibition of CYP2D6 activity [11]: could not inhibit
SMILES: C[C@H]1C(=O)CC[C@@H]2[C@]1(C)CC[C@H]1[C@@]2(C)CC[C@@]2(C)[C@@H]3CC(C)(C)CC[C@]3(C)CC[C@]12C [Friedelin]
- Effect on ATPase activity of P-glycoprotein [9]: could suppress ATPase activity

From publication PMC6130513, “In vitro inhibitory effects of Friedelin on human liver cytochrome P450 enzymes” (Pharmaceutical Biology, 2018)
